In data set [1] the test system is Aβ42 secretion. Nature of the data set: Aβ40/Aβ42 ELISA of culture supernatants, CHO cells expressing APP751 and PS-1 mutant M146L. It counts as cell-based, Chinese hamster. The settings on record: concentrations up to 500 μM. How it is done: Cell cultures were maintained in standard cell culture media supplemented with 10% fetal bovine serum and 100 U/mL penicillin/streptomycin (Life Technologies Inc., Germany).
For analyses of Aβ secretion, APP processing, and notch cleavage, cells were cultured in serum-containing media and pretreated overnight with a specific NSAID. The next day, media were changed and cultures were treated with the same NSAID for another 24 hours.
Aβ was detected by sandwich enzyme-linked immunosorbent assay (ELISA) as described by Murphy et al. (2000) J Biol Chem 275:26277-84. Following NSAID treatment, culture supernatants were collected, and cell debris was removed by centrifugation. Complete protease inhibitor cocktail (Roche Molecular Biochemicals, IN, USA) was added to the media and Aβ40 and Aβ42 levels were quantified using end-specific Aβ ELISAs. All measurements were performed in duplicate.
Levels of Aβ40 and Aβ42 in culture supernatants were analyzed using ELISA. […] Aβ42/Aβ40 ratios and total Aβ levels (i.e., the sum of Aβ40 and Aβ42 values) were normalized to values obtained from DMSO-treated cells. Results shown were averages of two or three experiments performed in duplicate.
Aβ40 and Aβ42 levels in culture supernatants were analyzed using ELISA as described in Example 3. […] Aβ42/Aβ40 ratios and total Aβ levels were normalized to values obtained from ethanol-treated cells. Results shown were averages of two or three experiments, each performed in duplicate.
In general terms: An ELISA detects its analyte on a solid surface through an enzyme-linked reagent.

For data set [2], the system named is APP processing. Briefly: Western blot of APP, APP CTFs and sAPP, CHO cells expressing APP751. The settings on record: 500 μM; data not shown. The class given is cell-based, Chinese hamster. An excerpt: Expression of holo-APP and APP C-terminal fragments (CTFs) was examined by Western blot analysis using antibody CT-15. APP secretion was examined by Western blotting using a mixture of 5A3/IG7 antibodies. APP turnover was examined by pulse labeling of CHO cells with 150 μCi [^35S]-methionine for fifteen minutes followed by a cold chase step for up to four hours. Cell lysates were immunoprecipitated with antibody CT-15, subjected to SDS-PAGE, and analyzed by phosphor imaging.
Cell lysates were prepared, and steady-state APP levels were examined using 4-12% gradient-gel electrophoresis and western blotting using the polyclonal antibody CT15.
For orientation: Immunoblotting shows a protein as a band on a membrane.

Data set [3] deals with Notch intramembrane cleavage. Nature of the data set: Notch intramembrane cleavage and NICD formation in HEK293 cells. The class given is cell-based. The settings on record: 500 μM; data not shown. The source says:
Two Notch-encoding vector constructs were used in examining Notch processing. These were a construct expressing a myc-tagged NH2-terminal truncated Notch-1 polypeptide (NotchΔEMV), and a construct expressing only the Notch intracellular cytoplasmic domain (NICD) (see Kopan et al. (1996) Proc Natl Acad Sci USA 93:1683-8). In the construct expressing a myc-tagged NH2-terminal truncated Notch-1 polypeptide, the start codon, a methionine at position 1726, was mutated to a valine to eliminate translation initiation.
Notch intramembrane cleavage and formation of NICD were analyzed in kidney HEK293 cells. The myc-tagged NotchΔEMV construct encoding a constitutively cleaved Notch variant was transiently transfected into HEK293 cells. […] Then they were pulse labeled with ^35S-methionine for thirty minutes and chased for two hours. Cell lysates were prepared and subjected to immunoprecipitation with monoclonal antibody 9E10. Immunoprecipitated proteins were subjected to SDS-PAGE and phosphor imaging analyses.

For data set [4], the system named is brain Aβ42 levels in Tg2576 mice. Briefly: Acute oral dosing of three-month-old Tg2576 mice, brain Aβ ELISA. The class given is in vivo, mouse. The settings on record: Tg2576 mice. Here is the method:
NSAIDs were dissolved in an appropriate vehicle. Dimethyl sulfoxide (DMSO), ethanol, and ethyl acetate are some examples. The NSAID solution was mixed with Kool-Aid and administered orally using a medicine dropper. […] At two hours after the final doses were administered, animals were sacrificed, and SDS soluble Aβ40 and Aβ42 were analyzed using ELISA.
Three month old mice have high levels of soluble Aβ in the brain but no Aβ deposition (see Hsiao et al. (1996) Science 274:99-102). […] Brain levels of SDS-soluble Aβ40 and Aβ42 were measured using ELISA.
Compounds were administered orally.

In data set [5] the test system is Aβ42 secretion. Briefly: Primary in vitro screen, CHO-APP695NL,I,his cells, end-specific Aβ40 and Aβ42 ELISAs. The settings on record: Cricetulus griseus, 6 h, six-hour culture supernatants. It counts as cell-based, Chinese hamster. How it is done: Aβ40 and Aβ42 levels in culture supernatants were determined for each time points using ELISA.
In a primary screen, the effects of NSAIDs on Aβ42 secretion by a CHO cell line that expressed APP(CHO-APP695NL,I,his) were examined. Duplicate cell cultures were treated with (a) a vehicle, (b) 10 μM of NSAID, or (c) 100 μM of NSAID.
To determine Aβ40 and Aβ42 levels, six-hour culture supernatants taken from cells grown in a single well of a twenty-four-well plate were used in end-specific Aβ40 and Aβ42 ELISAs (Suzuki, et al. (1994) Sci 264:[…]). Aβ40 and Aβ42 levels of cultures treated with NSAID were compared with those of cultures treated with the vehicle alone. […] NSAIDs that caused either selective reduction of Aβ42 levels or reduction in both Aβ40 and Aβ42 levels are subjected to a secondary screen.

Data set [6] deals with Aβ levels in the brain. Particulars: long-term transgenic mouse studies; cited from earlier work.
For data set [7] the following is noted: plasma concentration of the drug; cited from earlier work.
Where [8] appears, read: three month-old, 50 mg/kg/day orally for three days, SDS-soluble, mean ± SD.
The mark [9] stands for this setting: treatment for three days, 50 mg/kg/day.

Where two headings read alike, the source gives them in different places.

`CC(C)Cc1ccc(C(C)C(=O)O)cc1` (stereo not shown) [Ibuprofen, ibuprofen]: the “total Aβ levels” value in data set [1] is given as “not significantly affected”. Also, the “accumulation of APP-CTFs” value in data set [2] is given as “did not cause”. The “inhibition of Notch cleavage” value in data set [3] was “did not cause”. In data set [4] (setting [8]), the “Brain levels of Aβ40” value is recorded as 2620 ± 246 fmol/gm and the “Brain levels of Aβ42” value worked out at 734 ± 302 fmol/gm. For the same compound, the “% Aβ42 in brain” value in data set [4] (three month-old, 50 mg/kg/day orally for three days, mean ± SD) is reported as 21.5 ± 7.7 %. In addition, in data set [4] (setting [9]), the “Aβ40 levels in the brain” value was “no change” and the “reduction in Aβ42 levels in the brain” value was “approximately 30%”. Also, in data set [5] (read-out: % Control % Aβ42), the activity at 10 µM was found to be 82% and the activity at 100 µM was determined as 81%. Moreover, in data set [5] (read-out: % Control Aβ40), the activity at 10 µM worked out at 102% and the activity at 100 µM is 95%. Moreover, in data set [5] (read-out: % Control Aβ42), the activity at 10 µM amounted to 80% and the activity at 100 µM was determined as 74%. For the same compound, the “Aβ levels in the brain, lower when treated than untreated” value in data set [6] was “about 38%”. In addition, the Plasma in data set [7] is 40 to 111 µM.

These data come from patent US20060004086A1, “Method of reducing Abeta42 and treating diseases” (Mayo Foundation for Medical Education and Research, priority 2000, published 2006).
